Results: patent US20100196465A1, “STABLE PHARMACEUTICAL COMPOSITION OF A WATER-SOLUBLE VINORELBINE SALT” (Pierre Fabre Medicament, priority 2007, published 2010)

Test: Stability test at 5° C. in a sealed package after 6 and 12 months (impurity content)
Assay type: physicochemical
Settings: external 20% humidity, % of the total weight of the composition
Method: The compositions as gelatin capsules are housed in a sealed package (T0) and stored at 5° C. with an external 20% humidity rate. Next, the impurity content (in % of the total weight of the composition) is dosed after 6 and 12 months (T6 and T12 respectively) and compared to that dosed beforehand at T0. The difference between the percentages at T6 and T0 and then T12 and T0 indicate the change in the impurity content.
It is compared with that obtained for freeze-dried vinorelbine ditartrate stored under the same conditions.
This operating procedure was applied in the following Examples 2 to 5.

CCC1=C[C@@H]2CN(C1)Cc1c([nH]c3ccccc13)[C@@](C(=O)OC)(c1cc3c(cc1OC)N(C)[C@H]1[C@@](O)(C(=O)OC)[C@H](OC(C)=O)[C@]4(CC)C=CCN5CC[C@]31[C@@H]54)C2 [Vinorelbine ditartrate, vinorelbine ditartrate]
Change in impurity content T0 to T12: T0 to T12: +0.79%
